Data from patent publication US20060069132A1, “Azolecarboxamide herbicides” (priority 2004, published 2006).

Key:
barnyardgrass [1] = test: Test A pre-/postemergence herbicide test; assay type: in vivo, Echinochloa crus-galli; conditions: for Plant response rating, Barnyardgrass: Postemergence; for Barnyardgrass plant response rating: Preemergence
Method in brief: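 Visual injury scores on a 0–100 scale (100 = complete control) taken about ten days post-treatment in greenhouse against untreated controls; dash means no result. Treatments: preemergence soil spray and postemergence spray to runoff on one- to two-leaf plants 2 to 10 cm tall, surfactant-containing formulation.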

cocklebur = test: Test C pre-/postemergence herbicide test; assay type: in vivo, Xanthium strumarium
Method in brief: (§1)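 Visual ratings on a 0–100 scale (100 = complete control) made versus untreated controls after 12 to 14 greenhouse days. Test chemicals, formulated in surfactant-containing non-phytotoxic solvent, applied preemergence to planted seeds or postemergence to 1- to 4-leaf plants (2 to 18 cm).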

corn = test: Test C pre-/postemergence herbicide test; assay type: in vivo, Zea mays
Method in brief: as §1

large crabgrass = test: Test C pre-/postemergence herbicide test; assay type: in vivo, Digitaria sanguinalis
Method in brief: as §1

lambsquarters = test: Test C pre-/postemergence herbicide test; assay type: in vivo, Chenopodium album
Method in brief: as §1

eastern black nightshade = test: Test C pre-/postemergence herbicide test; assay type: in vivo, Solanum ptycanthum; conditions: preemergence
Method in brief: as §1

pigweed = test: Test C pre-/postemergence herbicide test; assay type: in vivo, Amaranthus retroflexus
Method in brief: as §1

common ragweed = test: Test C pre-/postemergence herbicide test; assay type: in vivo, Ambrosia elatior; design: key to Plant response rating, Ragweed: 0 = no effect, 100 = complete control
Method in brief: as §1

[2] = tested on: common (oilseed) sunflower; test: Test C pre-/postemergence herbicide test; assay type: in vivo, Helianthus annuus; conditions: preemergence
Method in brief: as §1

velvetleaf = test: Test C pre-/postemergence herbicide test; assay type: in vivo, Abutilon theophrasti
Method in brief: as §1

[3] = tested on: smallflower umbrella sedge; test: Test C flooded paddy test; assay type: in vivo, Cyperus difformis
ducksalad = test: Test C flooded paddy test; assay type: in vivo, Heteranthera limosa
barnyardgrass [4] = test: Test C flooded paddy test; assay type: in vivo, Echinochloa crus-galli
Method in brief: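 Greenhouse test with a 12–14 day hold after application and visual comparison with controls. Emerged plants were 1- to 4-leaf stage (2–18 cm) when sprayed postemergence, and the paddy barnyardgrass was at 2 leaves under flooded conditions. 100 = complete control.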

[5] = 2000 g ai/ha, 0 to 100 scale, 0 no effect, 100 complete control
[6] = 31 g ai/ha, preemergence, scale 0 to 100
[7] = 125 g ai/ha, scale 0-100, preemergence
[8] = Postemergence, 125 g ai/ha, scale 0 to 100, 0 no effect, 100 complete control
[9] = postemergence, 62 g ai/ha, scale 0 to 100
[10] = postemergence, 31 g ai/ha, scale 0 to 100
[11] = postemergence, 125 g ai/ha, scale 0 to 100
[12] = 62 g ai/ha, preemergence, scale 0 to 100
[13] = 250 g ai/ha, scale 0-100, preemergence
[14] = 500 g ai/ha, scale 0 to 100 (0 no effect, 100 complete control), visual, 12 to 14 days, preemergence
[15] = 500 g ai/ha, scale 0 to 100 (0 no effect, 100 complete control), visual, 12 to 14 days
[16] = 125 g ai/ha, scale 0 to 100 (0 no effect, 100 complete control)
[17] = 250 g ai/ha, scale of 0 to 100, 0 is no effect, 100 is complete control
[18] = 500 g ai/ha, visual rating after 12 to 14 days, scale 0 to 100 (0 no effect, 100 complete control)

C=Cn1nc(C(C)(C)C)cc1C(=O)Nc1cccc(C(=O)NCC)c1 [Compound 33]
Plant response rating, Barnyardgrass (barnyardgrass [1]; 500 g ai/ha, 0 to 100 scale, 0 no effect, 100 complete control): 75
Plant response rating, Barnyardgrass (barnyardgrass [1]; [5]): 90
Barnyardgrass plant response rating (barnyardgrass [1]; 500 g ai/ha, visual rating, 0 to 100 scale (0 no effect, 100 complete control)): 55
Barnyardgrass plant response rating (barnyardgrass [1]; [5]): 80
Plant response rating, Cocklebur (cocklebur; [6]): 0
Plant response rating (0 = no effect, 100 = complete control), Cocklebur (cocklebur; 62 g ai/ha, preemergence): 0
Plant response rating, Cocklebur (cocklebur; [7]): 30
Plant response rating, Cocklebur (cocklebur; [8]): 70
Plant response rating, Cocklebur (cocklebur; postemergence, 16 g ai/ha, scale 0 to 100): 20
Plant response rating, Cocklebur (cocklebur; [9]): 50
Plant response rating, Corn (corn; [6]): 0
Plant response rating (0 = no effect, 100 = complete control), Corn (corn; 62 g ai/ha, preemergence): 0
Plant response rating, Corn (corn; [7]): 0
Plant response rating, Corn (corn; [8]): 40
Plant response rating, Corn (corn; [10]): 40
Plant response rating, Corn (corn; [9]): 40
Plant response rating, Crabgrass, Large (large crabgrass; [6]): 90
Plant response rating (0 = no effect, 100 = complete control), Crabgrass, Large (large crabgrass; 62 g ai/ha, preemergence): 100
Plant response rating, Crabgrass, Large (large crabgrass; [7]): 100
Plant response rating, Crabgrass, Large (large crabgrass; [8]): 50
Plant response rating, Crabgrass, Large (large crabgrass; [10]): 40
Plant response rating, Lambsquarters (lambsquarters; [6]): 80
Plant response rating (0 = no effect, 100 = complete control), Lambsquarters (lambsquarters; 62 g ai/ha, preemergence): 100
Plant response rating, Lambsquarters (lambsquarters; [7]): 100
Plant response rating, Lambsquarters (lambsquarters; [11]): 90
Plant response rating, Lambsquarters (lambsquarters; [10]): 90
Plant response rating, Lambsquarters (lambsquarters; [9]): 90
Plant response rating, Nightshade (eastern black nightshade; 31 g ai/ha, scale 0 to 100): 10
Plant response rating (0 = no effect, 100 = complete control), Nightshade (eastern black nightshade; 62 g ai/ha): 60
Plant response rating, Pigweed (pigweed; [6]): 30
Plant response rating (0 = no effect, 100 = complete control), Pigweed (pigweed; 62 g ai/ha, preemergence): 50
Plant response rating, Pigweed (pigweed; [11]): 100
Plant response rating, Pigweed (pigweed; [10]): 90
Plant response rating, Pigweed (pigweed; [9]): 100
Plant response rating, Ragweed (common ragweed; [6]): 0
Plant response rating (0 = no effect, 100 = complete control), Ragweed (common ragweed; 62 g ai/ha, preemergence): 0
Plant response rating, Ragweed (common ragweed; [11]): 70
Plant response rating, Ragweed (common ragweed; [9]): 60
Plant response rating, Sunflower ([2]; 31 g ai/ha, scale 0 to 100): 0
Plant response rating (0 = no effect, 100 = complete control), Sunflower ([2]; 62 g ai/ha): 0
Plant response rating, Velvetleaf (velvetleaf; [6]): 0
Plant response rating, Velvetleaf (velvetleaf; [10]): 60
Plant response rating, Velvetleaf (velvetleaf; [9]): 90

CCc1nn(C(C)(C)C)nc1C(=S)Nc1cccc(C(=S)N(C)C)c1 [Compound 396]
Plant response rating, Cocklebur (cocklebur; [12]): 0
Plant response rating (0 = no effect, 100 = complete control), Cocklebur (cocklebur; 125 g ai/ha, preemergence): 0
Plant response rating, Cocklebur (cocklebur; [13]): 0
Plant response rating, Cocklebur (cocklebur; [14]): 0
Plant response rating, Corn (corn; [12]): 0
Plant response rating (0 = no effect, 100 = complete control), Corn (corn; 125 g ai/ha, preemergence): 30
Plant response rating, Corn (corn; [13]): 60
Plant response rating, Corn (corn; [14]): 80
Plant response rating, Crabgrass, Large (large crabgrass; [12]): 100
Plant response rating (0 = no effect, 100 = complete control), Crabgrass, Large (large crabgrass; 125 g ai/ha, preemergence): 100
Plant response rating, Crabgrass, Large (large crabgrass; [13]): 100
Plant response rating, Crabgrass, Large (large crabgrass; [14]): 100
Plant response rating, Lambsquarters (lambsquarters; [12]): 100
Plant response rating (0 = no effect, 100 = complete control), Lambsquarters (lambsquarters; 125 g ai/ha, preemergence): 100
Plant response rating, Lambsquarters (lambsquarters; [13]): 100
Plant response rating, Lambsquarters (lambsquarters; [14]): 100
Plant response rating, Nightshade (eastern black nightshade; 62 g ai/ha, scale 0 to 100): 95
Plant response rating (0 = no effect, 100 = complete control), Nightshade (eastern black nightshade; 125 g ai/ha): 100
Plant response rating, Nightshade (eastern black nightshade; 250 g ai/ha, scale 0-100): 100
Plant response rating, Nightshade (eastern black nightshade; [15]): 100
Plant response rating, Pigweed (pigweed; [12]): 100
Plant response rating (0 = no effect, 100 = complete control), Pigweed (pigweed; 125 g ai/ha, preemergence): 100
Plant response rating, Pigweed (pigweed; [13]): 100
Plant response rating, Pigweed (pigweed; [14]): 100
Plant response rating, Ragweed (common ragweed; [12]): 0
Plant response rating (0 = no effect, 100 = complete control), Ragweed (common ragweed; 125 g ai/ha, preemergence): 0
Plant response rating, Ragweed (common ragweed; [13]): 80
Plant response rating, Ragweed (common ragweed; [14]): 95
Plant response rating, Sunflower ([2]; 62 g ai/ha, scale 0 to 100): 0
Plant response rating (0 = no effect, 100 = complete control), Sunflower ([2]; 125 g ai/ha): 0
Plant response rating, Sunflower ([2]; 250 g ai/ha, scale 0-100): 0
Plant response rating, Sunflower [2, 15]: 15
Plant response rating, Velvetleaf (velvetleaf; [12]): 0
Plant response rating (0 = no effect, 100 = complete control), Velvetleaf (velvetleaf; 125 g ai/ha, preemergence): 45
Plant response rating, Velvetleaf (velvetleaf; [13]): 100
Plant response rating, Velvetleaf (velvetleaf; [14]): 100
Sedge, Umbrella plant response rating ([3]; 62 g ai/ha, scale 0 to 100): 70
Sedge, Umbrella plant response rating [3, 16]: 75
Sedge, Umbrella plant response rating [3, 17]: 85
Plant response rating, Sedge, Umbrella [3, 18]: 90
Ducksalad plant response rating (ducksalad; 62 g ai/ha, scale 0 to 100): 0
Ducksalad plant response rating (ducksalad; [16]): 0
Ducksalad plant response rating (ducksalad; [17]): 65
Plant response rating, Ducksalad (ducksalad; [18]): 75
Barnyardgrass plant response rating (barnyardgrass [4]; 62 g ai/ha, scale 0 to 100 (0 no effect, 100 complete control)): 65
Barnyardgrass plant response rating (barnyardgrass [4]; [16]): 75
Barnyardgrass plant response rating (barnyardgrass [4]; [17]): 75
Plant response rating, Barnyardgrass (barnyardgrass [4]; [18]): 80
